Molecular target: T1, ΔF508-CFTR (Homo sapiens, UniProt P13569, DEL508-508)
T1 construct: expressed in transfected cells
Experiment: Membrane potential optical (FRET/VIPR) assay, identification of correction compounds
Format: cell-based
Settings: Table 3, assay not given; for Emax: read-out: % Activity / % Efficacy (relative efficacy)
Procedure, shortened: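 NIH3T3 mouse fibroblasts stably expressing ΔF508-CFTR were exposed to compound for 16 h at 37° C in serum-free medium, then loaded with DiSBAC2(3)/CC2-DMPE. After addition of 10 μM forskolin plus 20 μM genistein in Cl⁻-free gluconate bath (pH 7.4), depolarization from Cl⁻ efflux was read by FRET (VIPR II).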

T1 sequence (P13569 with tags, fused parts or gaps DEL508-508): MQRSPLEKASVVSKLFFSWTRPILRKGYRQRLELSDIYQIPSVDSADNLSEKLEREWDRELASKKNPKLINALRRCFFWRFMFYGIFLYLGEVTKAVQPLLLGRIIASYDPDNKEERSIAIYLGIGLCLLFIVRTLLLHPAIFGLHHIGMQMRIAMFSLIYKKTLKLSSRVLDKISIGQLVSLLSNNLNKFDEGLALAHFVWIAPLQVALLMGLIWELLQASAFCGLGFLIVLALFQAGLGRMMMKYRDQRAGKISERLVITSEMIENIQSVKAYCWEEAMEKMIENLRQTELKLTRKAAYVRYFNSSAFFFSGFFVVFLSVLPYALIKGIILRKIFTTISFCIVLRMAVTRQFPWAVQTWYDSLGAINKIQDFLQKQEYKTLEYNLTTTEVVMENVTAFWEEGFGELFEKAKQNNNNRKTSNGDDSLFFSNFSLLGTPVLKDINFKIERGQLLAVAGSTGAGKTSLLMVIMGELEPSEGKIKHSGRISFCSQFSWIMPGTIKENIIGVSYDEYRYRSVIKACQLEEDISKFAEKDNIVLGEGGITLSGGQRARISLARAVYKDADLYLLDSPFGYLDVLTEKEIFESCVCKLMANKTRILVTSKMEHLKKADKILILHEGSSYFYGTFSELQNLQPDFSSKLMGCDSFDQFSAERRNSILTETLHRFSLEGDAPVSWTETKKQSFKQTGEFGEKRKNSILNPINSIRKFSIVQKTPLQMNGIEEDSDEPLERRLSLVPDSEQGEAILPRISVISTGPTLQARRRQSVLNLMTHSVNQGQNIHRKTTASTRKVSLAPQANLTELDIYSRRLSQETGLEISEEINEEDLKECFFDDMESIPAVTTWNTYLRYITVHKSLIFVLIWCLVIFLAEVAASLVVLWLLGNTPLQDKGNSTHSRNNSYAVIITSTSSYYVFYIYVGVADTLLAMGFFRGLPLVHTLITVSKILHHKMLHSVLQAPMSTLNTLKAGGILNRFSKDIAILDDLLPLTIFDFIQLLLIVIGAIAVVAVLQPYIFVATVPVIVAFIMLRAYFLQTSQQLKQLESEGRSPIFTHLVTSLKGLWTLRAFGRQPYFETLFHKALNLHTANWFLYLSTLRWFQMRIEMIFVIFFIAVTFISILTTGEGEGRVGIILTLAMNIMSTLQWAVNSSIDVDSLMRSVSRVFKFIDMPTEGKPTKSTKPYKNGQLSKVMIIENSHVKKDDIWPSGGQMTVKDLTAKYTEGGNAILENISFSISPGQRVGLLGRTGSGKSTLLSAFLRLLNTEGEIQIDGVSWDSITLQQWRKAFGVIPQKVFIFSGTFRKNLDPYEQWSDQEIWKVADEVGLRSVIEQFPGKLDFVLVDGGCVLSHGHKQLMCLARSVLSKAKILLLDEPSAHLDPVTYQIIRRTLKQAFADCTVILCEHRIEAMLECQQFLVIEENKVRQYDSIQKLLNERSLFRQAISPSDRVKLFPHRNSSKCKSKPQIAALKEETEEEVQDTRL

SMILES | EC50 [µM] | Emax [%] | % Activity / % Efficacy (relative efficacy)
CC(C)C[C@H](CO)NC(c1cnc(NC(=O)C2(c3ccc4c(c3)OCO4)CC2)s1)c1cccc2c1OC(F)(F)O2 (stereo partly drawn) [Example 498] | < 10 | – | –
CCOc1ccccc1C(N[C@@H](CO)C(C)C)c1cnc(NC(=O)C2(c3ccc4c(c3)OCO4)CC2)s1 (stereo partly drawn) [Example 478] | < 10 | – | –
COCC1CCCN1C(c1cnc(NC(=O)C2(c3ccc4c(c3)OCO4)CC2)s1)C(C)(C)C (stereo not drawn) [Example 389] | 10 to 25 | > 100 | –
O=C(Nc1ncc(C(c2ccccc2Cl)N2CC[C@@H](O)C2)s1)C1(c2cccc(Cl)c2)CC1 (stereo partly drawn) [Example 446] | < 10 | > 100 | –
COc1cccc(C(c2cnc(NC(=O)C3(c4ccc5c(c4)OCO5)CC3)s2)N2CCCCC2)c1 (stereo not drawn) [Example 344] | < 10 | 25 to 100 | –
Cc1nn(-c2ccccc2)c(NC(=O)C2(c3ccc4c(c3)OCO4)CC2)c1-c1ccccc1 [Example 291] | 10 to 25 | 25 to 100 | –
CCC(c1cnc(NC(=O)C2(c3ccc4c(c3)OCO4)CC2)s1)N1CCCC1 (stereo not drawn) [Example 397] | 10 to 25 | 25 to 100 | –
Cc1cccc(C2(C(=O)Nc3ncc(C(c4ccccc4Cl)N4CC[C@@H](O)C4)s3)CC2)c1 (stereo partly drawn) [Example 450] | < 10 | > 100 | –
CC1(C)CC(NC(c2cnc(NC(=O)C3(c4ccc5c(c4)OCO5)CC3)s2)c2ccccc2Cl)CCO1 (stereo not drawn) [Example 429] | < 10 | > 100 | –
CC(C)[C@H](CO)NC(c1cnc(NC(=O)C2(c3ccc4c(c3)OCO4)CC2)s1)c1ccccc1Cl (stereo partly drawn) [Example 440] | < 10 | > 100 | –
CC(=O)O[C@@H]1CCN(C(c2cnc(NC(=O)C3(c4ccc5c(c4)OCO5)CC3)s2)c2ccccc2Cl)C1 (stereo partly drawn) [Example 321] | < 10 | > 100 | –
COc1cccc(F)c1Cc1cnc(NC(=O)C2(c3ccc4c(c3)OCO4)CC2)s1 [Example 196] | < 10 | – | +++ (“+++” means>100%)
Cc1ccc(C2(C(=O)Nc3ncc(C(c4ccccc4Cl)N4CC[C@@H](O)C4)s3)CC2)cc1 (stereo partly drawn) [Example 422] | < 10 | > 100 | –
O=C(Nc1ncc([C@@H](c2ccccc2Cl)N2CCCCC2)s1)C1(c2ccc3c(c2)OCO3)CC1 [Example 211] | < 10 | > 100 | –
CCOc1ccccc1C(NC(CO)CC(C)C)c1cnc(NC(=O)C2(c3ccc4c(c3)OCO4)CC2)s1 (stereo not drawn) [Example 476] | – | > 100 | –
O=C(Nc1ncc(Cc2ccccc2Cl)s1)C1(c2ccc(-n3cncn3)cc2)CC1 [Example 307] | < 10 | > 100 | –
O=C(Nc1ncc(C(NCCc2ccccn2)c2ccccc2Cl)s1)C1(c2ccc3c(c2)OCO3)CC1 (stereo not drawn) [Example 430] | < 10 | > 100 | –
O=C(Nc1ncc(Sc2ccccc2)s1)C1(c2ccc3c(c2)OCO3)CC1 [Example 105] | < 10 | – | +++ (“+++” means>100%)
COc1ccc(OC)c(-c2csc(NC(=O)C3(c4ccc5c(c4)OCO5)CC3)n2)c1 [Example 113] | < 10 | – | +++ (“+++” means>100%)
COc1ccc(C2(C(=O)Nc3ncc(Sc4ccccc4N)s3)CC2)cc1 [Example 95] | < 10 | 25 to 100 | –
Cn1nnc2cc(C3(C(=O)Nc4ncc(Cc5ccccc5Cl)s4)CC3)ccc21 [Example 304] | < 10 | > 100 | –

Results, then the molecule that gave them:

EC50 [µM] | Emax [%] | % Activity / % Efficacy (relative efficacy) | SMILES
< 10 | > 100 | – | CC(C)[C@H](CO)NC(c1cnc(NC(=O)C2(c3ccc4c(c3)OCO4)CC2)s1)c1cc(F)ccc1F (stereo partly drawn) [Example 484]
< 10 | – | +++ (“+++” means>100%) | O=C(Nc1ncc(-c2ccccc2)s1)C1(c2ccc3c(c2)OCO3)CC1 [Example 86]
< 10 | – | ++ (“++” means between 25% to 100%) | CS(=O)(=O)c1ccc(-c2csc(NC(=O)C3(c4ccc5c(c4)OCO5)CC3)n2)cc1 [Example 119]
10 to 25 | 25 to 100 | – | COCC1CCCN1C(c1ccc(S(C)(=O)=O)cc1)c1cnc(NC(=O)C2(c3ccc4c(c3)OCO4)CC2)s1 (stereo not drawn) [Example 375]
< 10 | > 100 | – | O=C(Nc1cnc(Cc2ccccc2Cl)s1)C1(c2ccc3c(c2)OCO3)CC1 [Example 267]
< 10 | > 100 | – | O=C(Nc1ncc(C(c2cc(F)ccc2F)N2CCCC2)s1)C1(c2ccc3c(c2)OCO3)CC1 (stereo not drawn) [Example 471]
< 10 | > 100 | – | O=C(Nc1ncc(C(c2ccccc2Cl)N2CCC[C@@H]2CO)s1)C1(c2ccc3c(c2)OCO3)CC1 (stereo partly drawn) [Example 229]
< 10 | > 100 | – | CC(C)[C@H](CO)NC(c1ccc2c(c1)OC(F)(F)O2)c1cnc(NC(=O)C2(c3ccc4c(c3)OCO4)CC2)s1 (stereo partly drawn) [Example 493]
10 to 25 | 25 to 100 | – | CS(=O)(=O)c1ccc(C(c2cnc(NC(=O)C3(c4ccc5c(c4)OCO5)CC3)s2)N2CCC[C@H]2C(N)=O)cc1 (stereo partly drawn) [Example 377]
< 10 | > 100 | – | O=C(Nc1ncc(C(c2ccc(Cl)cc2Cl)N2CC[C@@H](O)C2)s1)C1(c2ccc3c(c2)OCO3)CC1 (stereo partly drawn) [Example 470]
< 10 | > 100 | – | O=C(Nc1ncc(C(Cc2ccccc2Cl)N2CC[C@@H](O)C2)s1)C1(c2ccc3c(c2)OCO3)CC1 (stereo partly drawn) [Example 462]
< 10 | – | +++ (“+++” means>100%) | O=C(Nc1ncc(Cc2ccncc2Cl)s1)C1(c2ccc3c(c2)OCO3)CC1 [Example 265]
< 10 | > 100 | – | CN(C1CCCCC1)C(c1cnc(NC(=O)C2(c3ccc4c(c3)OCO4)CC2)s1)c1ccccc1Cl (stereo not drawn) [Example 413]
10 to 25 | > 100 | – | CN(C)C(c1cnc(NC(=O)C2(c3ccc4c(c3)OCO4)CC2)s1)C(C)(C)C (stereo not drawn) [Example 395]
< 10 | > 100 | – | O=C(Nc1ncc(Cc2ccccc2Cl)s1)C1(c2ccc(F)cc2)CCCC1 [Example 26]
< 10 | > 100 | – | O=C(Nc1ncc(C(c2ccccc2C(F)(F)F)N2CCCC2)s1)C1(c2ccc3c(c2)OCO3)CC1 (stereo not drawn) [Example 468]
< 10 | > 100 | – | O=C(Nc1ncc(C(c2cccc(Cl)c2)N2CC[C@@H](O)C2)s1)C1(c2ccc3c(c2)OCO3)CC1 (stereo partly drawn) [Example 343]
< 10 | 25 to 100 | – | COc1ccccc1C1(C(=O)Nc2ncc(Cc3ccccc3C#N)s2)CC1 [Example 68]
< 10 | – | +++ (“+++” means>100%) | O=C(Nc1ncc(Cc2cccc(Cl)c2)o1)C1(c2ccc3c(c2)OCO3)CC1 [Example 166]
10 to 25 | 25 to 100 | – | COc1nonc1NC(=O)C1(c2ccc3c(c2)OCO3)CC1 [Example 292]
< 10 | > 100 | – | O=C(Nc1ncc(C(c2ccccc2Cl)N2CC[C@H](O)C2)s1)C1(c2ccc3c(c2)OCO3)CC1 (stereo partly drawn) [Example 310]
< 10 | > 100 | – | COc1ccc(C2(C(=O)Nc3ncc(Cc4ccccc4OC)o3)CC2)cc1 [Example 156]
< 10 | – | +++ (“+++” means>100%) | CCOC(=O)c1sc(NC(=O)C2(c3ccc4c(c3)OCO4)CC2)nc1C(C)C [Example 109]
< 10 | > 100 | – | O=C(Nc1ncc(C(NC2CCCC2)c2ccccc2Cl)s1)C1(c2ccc3c(c2)OCO3)CC1 (stereo not drawn) [Example 414]
